{"source": "patent US20170313755A1", "about": "(priority 2016, published 2017)", "molecules": {"B1": {"name": "IGF1 (Y^B16L^B17) analog (ligand)", "chain 1": "GIVDECCFRSCDLRRLEMYCA", "chain 2": "GPETLCGAELVDALYLVCGDRGFYFNKPT", "notes": "Two chain analog; also called IGF analog"}}, "note": "Entries after “also recorded” stand apart in the source; their conditions may differ."}
{"target": "T1, human insulin receptor (human, UniProt P06213 28-1382)", "T1 construct": "whole, on cells; Stood in the assay as plasma membrane fragments on wheat germ agglutinin SPA beads, not as whole cells", "assay": "scintillation proximity competition binding against 125I-insulin, membranes with human insulin receptor", "settings": "not given", "method": "The affinity of each peptide for the insulin or IGF-1 receptor was measured in a competition binding assay utilizing scintillation proximity technology. […] Non-specifically bound (NSB) radioactivity was measured in the wells with a four-fold concentration excess of “cold” native ligand than the highest concentration in test samples. Total bound radioactivity was detected in the wells with no competitor. Percent specific binding was calculated as following: % Specific Binding=(Bound-NSB/Total bound-NSB)×100. IC50 values were determined by using Origin software (OriginLab, Northampton, Mass.).", "units": {"IC50": "nM"}}
{"molecule": "B1", "IC50": 0.51}
{"system": "insulin receptor A (IRA) and insulin receptor B (IRB) isoforms", "assay": "not given", "settings": "non-covalent addition (in trans); previous work; cited from earlier work"}
{"molecule": "SLEEEWAQIQSEVWGRGSPSYC (synthetic insulin receptor antagonist peptide) [#6Cys]", "antagonism of native insulin by unconjugated peptide (words)": "incapable of antagonizing native insulin"}
{"system": "insulin receptor A (IRA) and insulin receptor B (IRB) isoforms", "assay": "not given", "settings": "non-covalent addition (in trans); previous work; listed as #6-Cys; cited from earlier work"}
{"molecule": "SLEEEWAQIQSEVWGRGSPSYC (synthetic insulin receptor antagonist peptide) [#6Cys]", "antagonism of native insulin by unconjugated peptide (words)": "incapable of antagonism in vitro"}
{"system": "mice", "assay": "Comparative insulin tolerance tests on mice (acylated insulin analogs)", "assay_type": "in vivo", "settings": "27 nmol/kg and 90 nmol/kg; even after 8 hours", "method": "The polypeptides were tested at two different concentrations (27 nmol/kg and 90 nmol/kg). The acylated insulins included MIU-41, MIU-36 and MIU-37.\nThe compounds were tested at two different concentrations (27 nmol/kg and 90 nmol/kg)."}
{"molecule": "[B^1(H5,H10,Y16,L17,C16rE-K22)26A: A^1(N18,N21)] [MIU-37]", "blood glucose lowering relative to native insulin": "more basal and sustained lowered glucose levels"}
{"molecule": "[B^1(H5,H10,Y16,L17)26A: A^1(H8,rEC16-K14,N18,N21)] [MIU-41]", "blood glucose lowering relative to native insulin": "more basal and sustained lowered glucose levels"}
{"molecule": "[B^1(C16-K0,H5,H10,Y16,L17)26A: A1(N18,N21)] [MIU-36]", "blood glucose lowering relative to native insulin": "more basal and sustained lowered glucose levels"}
{"system": "insulin receptor A (IRA) and insulin receptor B (IRB) isoforms", "assay": "Insulin receptor phosphorylation assay in receptor transfected HEK293 cells", "assay_type": "cell-based, human", "settings": "agonism", "quoted_text": "Color development was stopped 5 min later by adding 0.05 ml 1 N HCl. Absorbance at 450 nm was measured on Titertek Multiscan MCC340 (ThermoFisher, Pittsburgh, Pa.). Absorbance vs. peptide concentration dose response curves were plotted and EC50 values were determined by using Origin software (OriginLab, Northampton, Mass.).\nOptical density at 450 nm was graphed as a function of peptide concentration using Origin Pro 9.0 graphing software."}
{"molecule": "#Insulin-Cys-4: B29 modified insulin disulfide-conjugated to Cys4 CGSLDESFYDWFERQLG (SEQ ID NO: 166)", "agonist (maximal) activity at the insulin receptor isoforms": "only a small change in maximal activity", "potency at the insulin receptor isoforms": "a small decrease in potency"}
{"molecule": "#6(A2)-Cys-Insulin: B29 modified insulin disulfide-conjugated to 6(A2)Cys SAEEEWAQIQSEVWGRGSPSYC (SEQ ID NO: 172)", "agonist (maximal) activity at the insulin receptor isoforms": "restored almost all of the potency and activity", "potency at the insulin receptor isoforms": "restored almost all of the potency and activity"}
{"molecule": "#6(Q2)-Cys-Insulin: B29 modified insulin disulfide-conjugated to 6(Q2)Cys SQEEEWAQIQSEVWGRGSPSYC (SEQ ID NO: 180)", "agonist (maximal) activity at the insulin receptor isoforms": "without a significant decrease in maximal activity; also recorded: high of maximal activity", "potency at the insulin receptor isoforms": "shift in potency; also recorded: decrease in potency"}
{"molecule": "#6(A1)-Cys-Insulin: B29 modified insulin disulfide-conjugated to 6(A1)Cys ALEEEWAQIQSEVWGRGPSYC (SEQ ID NO: 171)", "agonist (maximal) activity at the insulin receptor isoforms": "almost no effect upon bioactivity"}
{"molecule": "#6(A3)-Cys-Insulin: B29 modified insulin disulfide-conjugated to 6(A3)Cys SLAEEWAQIQSEVWGRGSPSYC (SEQ ID NO: 173)", "agonist (maximal) activity at the insulin receptor isoforms": "little effect on maximal activity", "potency at the insulin receptor isoforms": "shift the potency"}
{"molecule": "#6(V2)-Cys-Insulin: B29 modified insulin disulfide-conjugated to 6(V2)Cys SVEEEWAQIQSEVWGRGSPSYC (SEQ ID NO: 176)", "agonist (maximal) activity at the insulin receptor isoforms": "slight increase in maximal activity"}
{"molecule": "modified insulin: native insulin modified with an NHS ester to carry one additional thiol functional group at the B29 lysine", "agonist (maximal) activity at the insulin receptor isoforms": "fully activating the insulin receptor isoforms", "potency at the insulin receptor isoforms": "slightly reduced potency"}
{"molecule": "#6(dL2)-Cys-Insulin: B29 modified insulin disulfide-conjugated to 6(dL2)Cys SdLEEEWAQIQSEVWGRGSPSYC (SEQ ID NO: 174)", "agonist (maximal) activity at the insulin receptor isoforms": "low activity", "potency at the insulin receptor isoforms": "decreased potency"}
{"molecule": "#6(I2)-Cys-Insulin: B29 modified insulin disulfide-conjugated to 6(I2)Cys SIEEEWAQIQSEVWGRGSPSYC (SEQ ID NO: 175)", "agonist (maximal) activity at the insulin receptor isoforms": "very similar, low maximal activities"}
{"molecule": "#6(des1-5)-Cys-Insulin: B29 modified insulin disulfide-conjugated to 6(des1-5)Cys WAQIQSEVWGRGSPSYC (SEQ ID NO: 170)", "agonist (maximal) activity at the insulin receptor isoforms": "full activity", "potency at the insulin receptor isoforms": "full potency"}
{"system": "insulin receptor A (IRA) and insulin receptor B (IRB) isoforms", "assay": "Insulin receptor phosphorylation assay in receptor transfected HEK293 cells", "assay_type": "cell-based, human", "settings": "agonism, both receptor isoforms"}
{"molecule": "#6(F2)-Cys-Insulin: B29 modified insulin disulfide-conjugated to 6(F2)Cys SFEEEWAQIQSEVWGRGSPSYC (SEQ ID NO: 177)", "maximal activity relative to native insulin": "~50%"}
{"molecule": "#6(W2)-Cys-Insulin: B29 modified insulin disulfide-conjugated to 6(W2)Cys SWEEEWAQIQSEVWGRGSPSYC (SEQ ID NO: 178)", "maximal activity relative to native insulin": "approximately 60%"}
{"molecule": "#6(Y2)-Cys-Insulin: B29 modified insulin disulfide-conjugated to 6(Y2)Cys SYEEEWAQIQSEVWGRGSPSYC (SEQ ID NO: 179)", "maximal activity relative to native insulin": "approximately 70%"}
{"system": "insulin receptor A (IRA) and insulin receptor B (IRB) isoforms", "assay": "Insulin receptor phosphorylation assay in receptor transfected HEK293 cells", "assay_type": "cell-based, human", "settings": "conjugate against native insulin"}
{"molecule": "#4-Cys-Insulin: B29 modified insulin disulfide-conjugated to 4Cys GSLDESFYDWFERQLGC (SEQ ID NO: 167)", "antagonism at the insulin receptor isoforms": "some degree of antagonism"}
{"system": "STZ-mice", "assay": "Blood glucose in STZ diabetic mice after insulin/antagonist peptide conjugates", "assay_type": "in vivo", "settings": "10 nmol/kg, mice fasted 2 hours", "quoted_text": "The peptides were tested in STZ-mice, due to their high fasting blood glucose levels."}
{"molecule": "#6(A2)-Cys-Insulin: B29 modified insulin disulfide-conjugated to 6(A2)Cys SAEEEWAQIQSEVWGRGSPSYC (SEQ ID NO: 172)", "blood glucose response versus equivalent dose of native insulin": "behaved identically to an equivalent dose of native insulin"}
